Laboratory results: patent publication US10870630B2, “Substituted bicyclic heteroaryl allosteric modulators of nicotinic acetylcholine receptors” (Merck Sharp & Dohme Corp., priority 2016, dated 2020)
Where two headings read alike, the source gives them in different places.

Molecular target: human α7 nicotinic acetylcholine receptor (α7 nAChR) (Homo sapiens, UniProt P36544)
Assay: Automated patch-clamp electrophysiology functional assay (Assay A)
Type: cell-based
Settings: HEK cell line stably expressing human RIC-3 and human α7, IonFlux HT whole-cell population patch, 40 μM acetylcholine
Experimental: The α7 nAChR positive allosteric modulator (PAM) activity of the present compounds may be tested using assays known in the art. The α7 nAChR PAMs described herein have activities in an automated patch-clamp electrophysiology functional assay as described in the examples. The assay was performed using the IonFlux HT in a whole-cell, population patch configuration. See Golden et al. Assay Drug Dev. Technol. (2011) 9:608-619. The compounds were assessed for their ability to modulate the function of the human […] nAChR stably expressed in a HEK cell line both in the presence, and in the absence of the natural 07 agonist acetylcholine. By performing a series of such measurements at different concentrations, the effective concentration of the α7 nAChR PAMs (EC50) was determined. See Spencer et al. Assay Drug Dev. Technol. (2012) 10:313-324.
Automated patch-clamp electrophysiology was performed using the IonFlux HT (Fluxion Biosciences Inc., San Francisco, Calif.) in the whole-cell, population patch configuration. Test compounds were assessed for their ability to modulate the function of the α7 nicotinic acetylcholine receptor both in the presence, and in the absence of the natural α7 agonist acetylcholine. A HEK cell line stably expressing both human RIC-3 and human α7 (PrecisION hnAChR α7/RIC-3, Eurofins Pharma, St. Charles, Mo.) was cultured in 175 cm^2 triple-layer tissue culture flasks to no more than 90% confluency in DMEM/F-12 growth media supplemented with 10% heat-inactivated fetal bovine serum, 1% non-essential amino acids, 0.625 μg/mL Puromycin, and 400 μg/mL Geneticin. Immediately prior to assay, cells were detached by first aspirating growth media, rinsing with Dulbecco's phosphate buffered saline, and then adding 10 mL of Accutase (Innovative Cell Technologies, San Diego, Calif.) to the flask and then incubating at 37° C. for 5 minutes. Detached cells were then recovered by the addition of 40 mL of CHO-serum-free media supplemented with 25 mM HEPES, and rocked gently in a 50 mL conical tube for 20 minutes prior to patch-clamp assay. After recovery, cells were pelleted by centrifugation at 1,000 RPM for 1 minute in a compact bench top centrifuge; recovery media was aspirated and cells were resuspended in external recording solution (150 mM NaCl, 5 mM KCl, 2 mM CaCl2, 1 mM MgCl2, 10 mM HEPES, 12 mM dextrose) to a density of 5.0×10^6 cells/mL. The cell suspension was added to the cell inlet wells on an IonFlux HT population patch plate which had previously been rinsed and primed with deionized H2O. Test compounds were serially diluted in DMSO and then resuspended to the final test concentration in external recording solution, with, or without 40 μM acetylcholine added to the external recording solution; test compounds were then transferred to the IonFlux HT population patch plate. Internal recording solution (110 mM TrisPO4, 28 mM TrisBase, 0.1 mM CaCl2, 2 mM MgCl2, 11 mM EGTA, 4 mM MgATP) was added to the internal recording solution inlet wells on the IonFlux HT patch plate previously loaded with cells and test compounds, and the plate loaded into the IonFlux HT instrument. A protocol was executed on the IonFlux HT to trap the cells, break into the cells, and establish the whole-cell recording configuration; cells were voltage-clamped at a holding potential of −60 mV for the duration of the experiment, all experiments were conducted at room temperature, and the IonFlux HT injection pressure was 8 psi for solution applications. Upon establishing the whole-cell configuration, external recording solution was perfused into the recording chambers for 120 seconds and then 40 μM acetylcholine was applied for 1 second and immediately washed off with external recording solution for 60 seconds. The 40 μM acetylcholine-evoked α7 current served as the current response to which subsequent test compound effects, in the presence, or in the absence of 40 μM acetylcholine would be quantified relative to. […]

Chain of human α7 nicotinic acetylcholine receptor (α7 nAChR) (P36544 23-502): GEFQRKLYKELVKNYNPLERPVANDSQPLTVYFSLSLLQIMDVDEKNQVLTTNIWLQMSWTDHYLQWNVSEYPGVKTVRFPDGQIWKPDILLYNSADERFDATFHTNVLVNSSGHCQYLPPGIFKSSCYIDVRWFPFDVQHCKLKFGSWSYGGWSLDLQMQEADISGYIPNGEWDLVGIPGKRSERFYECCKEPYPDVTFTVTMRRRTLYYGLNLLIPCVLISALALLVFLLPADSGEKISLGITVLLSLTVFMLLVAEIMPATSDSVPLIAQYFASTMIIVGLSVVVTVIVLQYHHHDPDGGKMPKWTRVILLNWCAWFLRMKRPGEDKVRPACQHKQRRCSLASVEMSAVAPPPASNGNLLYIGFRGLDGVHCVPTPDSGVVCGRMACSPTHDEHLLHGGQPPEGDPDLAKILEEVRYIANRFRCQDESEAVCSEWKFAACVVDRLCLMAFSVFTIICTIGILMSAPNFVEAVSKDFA

Row | Compound | EC50 (read-out: α7 nAChR EC50) [nM] | EC50 (read-out: α7 nAChR Potency) [nM]
1 | Cc1nc2c(C3CC3c3ccc(S(N)(=O)=O)cc3)cccc2s1 (racemic) [Example E1, 4-[2-(2-Methyl-1,3-benzothiazol-4-yl)cyclopropyl]benzenesulfonamide] | 410 | 100 to 500
2 | NS(=O)(=O)c1ccc(C2CC2c2cnc3cc(Cl)cnc3c2)cc1 (racemic) [Example E2, 4-[2-(7-Chloro-1,5-naphthyridin-3-yl)cyclopropyl]benzenesulfonamide] |  | 500 to 5000
3 | NS(=O)(=O)c1ccc(C2CC2c2cnn3ccccc23)cc1 (racemic) [Example E3, 4-(2-Pyrazolo[1,5-a]pyridin-3-ylcyclopropyl)benzenesulfonamide] | 3500 | 500 to 5000
4 | NS(=O)(=O)c1ccc(C2CC2c2ccc3nccnc3c2)cc1 (racemic) [Example E4, 4-(2-Quinoxalin-6-ylcyclopropyl)benzenesulfonamide] |  | 500 to 5000
5 | NS(=O)(=O)c1ccc(C2CC2c2ccc3cc(C(F)(F)F)nnc3c2)cc1 (racemic) [Example E5, 4-[2-[3-(Trifluoromethyl)cinnolin-7-yl]cyclopropyl]benzenesulfonamide] |  | 500 to 5000
6 | NS(=O)(=O)c1ccc(C2CC2c2ccc3cc(Cl)ncc3c2)cc1 (racemic) [Example E6, 4-[2-(3-Chloro-7-isoquinolyl)cyclopropyl]benzenesulfonamide] | 1200 | 500 to 5000
7 | NS(=O)(=O)c1ccc(C2CC2c2cc3ccncc3s2)cc1 (racemic) [Example E7, 4-(2-Thieno[2,3-c]pyridin-2-ylcyclopropyl)benzenesulfonamide] |  | 500 to 5000
8 | NS(=O)(=O)c1ccc(C2CC2c2ccc3ccncc3n2)cc1 (racemic) [Example E8, 4-[2-(1,7-Naphthyridin-2-yl)cyclopropyl]benzenesulfonamide] |  | 500 to 5000
9 | Cn1ncc2cc(C3CC3c3ccc(S(N)(=O)=O)cc3)ccc21 (racemic) [Example E9, 4-[2-(1-Methylindazol-5-yl)cyclopropyl]benzenesulfonamide] | 2800 | 500 to 5000
10 | NS(=O)(=O)c1ccc(C2CC2c2cc3n(n2)CCCC3)cc1 (racemic) [Example E10, 4-[2-(4,5,6,7-Tetrahydropyrazolo[1,5-a]pyridin-2-yl)cyclopropyl]benzenesulfonamide] |  | 5000 to 50000
11 | NS(=O)(=O)c1ccc(C2CC2c2cnc3occc3c2)cc1 (racemic) [Example E11, 4-(2-Furo[2,3-b]pyridin-5-ylcyclopropyl)benzenesulfonamide] |  | 500 to 5000
12 | Cn1cc2ccc(C3CC3c3ccc(S(N)(=O)=O)cc3)cc2n1 (racemic) [Example E12, 4-[2-(2-Methylindazol-6-yl)cyclopropyl]benzenesulfonamide] | 5000 | 500 to 5000
13 | CN1CCOc2cc(C3CC3c3ccc(S(N)(=O)=O)cc3)cnc21 (racemic) [Example E13, 4-[2-(4-Methyl-2,3-dihydropyrido[3,2-b][1,4]oxazin-7-yl)cyclopropyl]benzenesulfonamide] | 880 | 500 to 5000
14 | NS(=O)(=O)c1ccc([C@@H]2C[C@H]2c2cnc3ccccc3n2)cc1 (relative stereo) [Example 7, 4-[trans-2-(Quinoxalin-2-yl)cyclopropyl]benzenesulfonamide] | 1300 | 500 to 5000
15 | CC1(C)[C@H](c2ccc(S(N)(=O)=O)cc2)[C@H]1c1nc2ccccc2o1 [Example 1, 4-[(1R,3R)-3-(1,3-Benzoxazol-2-yl)-2,2-dimethylcyclopropyl]benzenesulfonamide] | 620 | 500 to 5000
16 | CC1(C)[C@@H](c2ccc(S(N)(=O)=O)cc2)[C@@H]1c1nc2ccc(F)cc2o1 [Example 2, 4-[(1S,3S)-3-(6-Fluoro-1,3-benzoxazol-2-yl)-2,2-dimethylcyclopropyl]benzenesulfonamide] | 71 | ≤ 100
17 | NS(=O)(=O)c1ccc([C@@H]2C[C@H]2c2ncc3ccccc3n2)cc1 [Example 3, 4-[(1R,2R)-2-(Quinazolin-2-yl)cyclopropyl]benzenesulfonamide] | 370 | 100 to 500
18 | NS(=O)(=O)c1ccc([C@@H]2C[C@H]2c2nc3c(o2)CCCC3)cc1 [Example 4, 4-[(1R,2R)-2-(4,5,6,7-Tetrahydro-1,3-benzoxazol-2-yl)cyclopropyl]benzenesulfonamide] | 610 | 500 to 5000
19 | NS(=O)(=O)c1ccc([C@@H]2C[C@H]2c2nc3ccccc3o2)cc1 [Example 5, 4-[(1R,2R)-2-(1,3-Benzoxazol-2-yl)cyclopropyl]benzenesulfonamide] | 160 | 100 to 500
20 | CC1(C)[C@H](c2ccc(S(N)(=O)=O)cc2)[C@H]1c1nc2cccnc2o1 [Example 6, 4-[(1R,3R)-2,2-Dimethyl-3-([1,3]oxazolo[5,4-b]pyridin-2-yl)cyclopropyl]benzenesulfonamide] | 3400 | 500 to 5000
21 | CC1(C)[C@H](c2ccc(S(N)(=O)=O)cc2)[C@H]1c1cn2ncccc2n1 [Example 8, 4-((1R,3R)-3-(Imidazo[1,2-b]pyridazin-2-yl)-2,2-dimethylcyclopropyl)benzenesulfonamide] | 3800 | 500 to 5000
22 | CC1(C)[C@@H](c2ccc(S(N)(=O)=O)cc2)[C@@H]1c1nc2ccccc2s1 [Example 9] | 350 | 100 to 500
23 | CC1(C)[C@@H](c2ccc(S(N)(=O)=O)cc2)[C@@H]1c1nc2ccc(F)cc2s1 [Example 10, 4-((1S,3S)-3-(6-Fluorobenzo[d]thiazol-2-yl)-2,2-dimethylcyclopropyl)benzenesulfonamide] | 450 | 100 to 500
24 | CC1(C)[C@H](c2ccc(S(N)(=O)=O)cc2)[C@H]1c1nc2c(o1)CCC2 [Example 11, 4-[(1R,3R)-3-(5,6-Dihydro-4H-cyclopenta[d][1,3]oxazol-2-yl)-2,2-dimethylcyclopropyl]benzenesulfonamide] | 2000 | 500 to 5000
25 | CC1(C)[C@H](c2ccc(S(N)(=O)=O)cc2)[C@H]1c1ncc2c(n1)CCCC2 [Example 12, 4-[(R,3R)-2,2-Dimethyl-3-(5,6,7,8-tetrahydroquinazolin-2-yl)cyclopropyl]benzenesulfonamide] | 2500 | 500 to 5000
26 | CC1(C)OC([C@H]2[C@H](c3ccc(S(N)(=O)=O)cc3)C2(F)F)=Nc2ccccc21 [Example 13, 4-[(1R,3R)-3-(4,4-Dimethyl-4H-3,1-benzoxazin-2-yl)-2,2-difluorocyclopropyl]benzenesulfonamide] | 1800 | 500 to 5000
27 | COc1cccc2oc([C@H]3[C@H](c4ccc(S(N)(=O)=O)cc4)C3(C)C)nc12 [Example A1, 4-[(1S,3S)-3-(4-Methoxy-1,3-benzoxazol-2-yl)-2,2-dimethyl-cyclopropyl]benzenesulfonamide] | 830 | 500 to 5000
28 | NS(=O)(=O)c1ccc([C@@H]2C[C@H]2c2nc3ccc(F)cc3o2)cc1 [Example A2, 4-[(1R,2R)-2-(6-Fluoro-1,3-benzoxazol-2-yl)cyclopropyl]benzenesulfonamide] | 60 | ≤ 100
29 | CC1(C)[C@@H](c2ccc(S(N)(=O)=O)cc2)[C@@H]1c1nc2c(F)cc(F)cc2s1 [Example A3, 4-[(1S,3S)-3-(4,6-Difluoro-1,3-benzothiazol-2-yl)-2,2-dimethyl-cyclopropyl]benzenesulfonamide] | 960 | 500 to 5000
